Key:
CCDC6-RET-BaF3 = target: T1, CCDC6-RET-BaF3 (Homo sapiens, UniProt P07949); assay: Growth inhibition of CCDC6-RET-BaF3 cells stably transfected with kinase (MTS); type: cell-based; conditions: 48 h, read-out: CCDC6-RET (IC50/nM)
T1 construct: fused on or other part: Q16204 (Coiled-coil domain-containing protein 6)
Experimental: (§1) Growth inhibitory activity of compounds on cell lines stably transfected with kinase
(§2) The activity of compounds against kinase RET is evaluated by their effect of inhibiting growth of cell lines stably transfected with kinase CCDC6-RET-BaF3, KIF5B-RET-BaF3, and wild-type BaF3 (Proc. Natl. Acad. Sci. USA., 2006, 103, 3153-8.). The growth of the cell lines stably transfected with kinase CCDC6-RET-BaF3, KIF5B-RET-BaF3 depends on their kinase activity. If a compound can inhibit the activity of the kinase RET per se or the activity of the RET signaling pathway, the compound can inhibit the growth of BaF3 cells stably transfected with kinase. […] Therefore, a larger ratio between IC50 of a compound to wild-type BaF3 and IC50 of the compound to the cell lines stably transfected with kinase CCDC6-RET-BaF3, KIF5B-RET-BaF3 indicates better targeting.
(§3) The specific test method is given as follows:
(§4) 1) Medium: DMEM (Dulbecco's modified eagle medium) or RPMI 1640 (containing 10% fetal bovine serum, 100 μg/mL ampicillin, 100 μg/mL streptomycin).
(§5) 2) Reagents: MTS reaction solution (containing 2 mg/mL of MTS [3-(4,5-dimethylthiazol-2-yl)-5-(3-carboxymethoxyphenyl)-2-(4-sulfophenyl)-2H-tetrazolium, inner Salt]; 100 μg/mL PES (phenazine […])).
(§6) 3) Compound test: cells stably transfected with kinase (CCDC6-RET-BaF3, KIF5B-RET-BaF3) or wild-type BaF3 cells (2×10^4 cells/well) were incubated into a 96-well culture plate, the volume of cell culture fluid was 90 μL, and then 10 μL of the compound at each gradient concentration was added (the highest concentration was 10 μM, which was diluted stepwise by ⅓, and 8 concentration points were set in total; the system contained 0.1% DMSO (dimethyl sulfoxide)). The cell plate with uniformly mixed compound was cultured in a cell culture incubator (37° C.; 5% CO2) for 48 h, then 20 μL of MTS reaction solution was added, uniformly mixed and incubated in the cell culture incubator (37° C.; 5% CO2) for 1-4 hr, OD values at 490 nm were measured by a microplate reader (VARIOSKAN FLASH, Thermo). Three parallels were set in each group of experiments, with 0.1% (a final concentration) DMSO as a negative control, and a medium without cells or compounds as a blank control. The cell growth inhibition rate was calculated by the following formula: Cell growth inhibition rate %=1−(ODexperimental group−ODblank group)/(ODnegative group−ODblank group)×100%
(§7) 4) IC50 calculation: The semi-inhibitory concentration of the compound acting on cell growth was calculated using GradPad Prism 5 software according to the measured cell growth inhibition rate.

KIF5B-RET-BaF3 = target: T2, KIF5B-RET-BaF3 (Homo sapiens, UniProt P07949); assay: Growth inhibition of KIF5B-RET-BaF3 cells stably transfected with kinase (MTS); type: cell-based; conditions: 48 h, read-out: KIF5B-RET (IC50/nM)
T2 construct: fused on or other part: P33176 (Kinesin-1 heavy chain)
T2 sequence (P07949 whole entry, change not shown, the tested form may be a part): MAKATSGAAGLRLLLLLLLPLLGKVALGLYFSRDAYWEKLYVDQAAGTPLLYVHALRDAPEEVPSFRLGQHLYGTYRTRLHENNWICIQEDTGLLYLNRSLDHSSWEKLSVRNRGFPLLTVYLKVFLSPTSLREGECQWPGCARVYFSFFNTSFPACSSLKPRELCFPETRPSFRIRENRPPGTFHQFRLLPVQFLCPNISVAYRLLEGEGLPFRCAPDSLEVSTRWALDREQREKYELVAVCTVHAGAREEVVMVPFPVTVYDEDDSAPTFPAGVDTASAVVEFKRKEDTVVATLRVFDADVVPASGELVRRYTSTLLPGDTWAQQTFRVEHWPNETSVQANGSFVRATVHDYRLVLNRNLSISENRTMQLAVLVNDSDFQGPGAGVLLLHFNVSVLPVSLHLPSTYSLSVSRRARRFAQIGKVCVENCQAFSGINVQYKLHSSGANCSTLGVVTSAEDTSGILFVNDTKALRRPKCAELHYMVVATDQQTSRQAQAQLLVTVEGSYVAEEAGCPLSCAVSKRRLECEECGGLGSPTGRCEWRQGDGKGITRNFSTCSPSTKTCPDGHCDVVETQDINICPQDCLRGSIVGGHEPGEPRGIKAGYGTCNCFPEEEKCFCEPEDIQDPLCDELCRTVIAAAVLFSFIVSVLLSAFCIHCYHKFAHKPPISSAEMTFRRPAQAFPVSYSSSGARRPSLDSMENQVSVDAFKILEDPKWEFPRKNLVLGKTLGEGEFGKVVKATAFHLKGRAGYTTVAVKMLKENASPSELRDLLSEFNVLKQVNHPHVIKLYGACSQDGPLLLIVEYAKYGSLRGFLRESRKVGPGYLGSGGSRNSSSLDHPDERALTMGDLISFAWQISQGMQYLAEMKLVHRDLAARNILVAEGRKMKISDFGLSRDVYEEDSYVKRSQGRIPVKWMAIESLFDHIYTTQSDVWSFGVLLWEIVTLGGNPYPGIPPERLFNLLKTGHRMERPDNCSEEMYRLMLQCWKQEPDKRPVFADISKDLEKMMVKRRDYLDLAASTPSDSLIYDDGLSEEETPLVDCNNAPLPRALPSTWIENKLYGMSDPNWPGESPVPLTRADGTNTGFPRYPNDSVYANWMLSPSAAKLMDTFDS
Experimental: as §1, §2, §3, §4, §5, §6, §7

T1 sequence (P07949 whole entry, change not shown, the tested form may be a part): as above

GI50 (CCDC6-RET-BaF3) [nM] | GI50 (KIF5B-RET-BaF3) [nM] | Structure (SMILES)
2070 | 1390 | CN1CCN(Cc2ccc(C(=O)Nc3cc(Oc4nc(-c5cccnc5)nc5c4cnn5C)ccc3Cl)cc2C(F)(F)F)CC1 [II-k-1]
15.8 | 114 | CN1CCN(Cc2ccc(C(=O)Nc3cc(Oc4nc(-c5ccncc5)nc5c4cnn5C)ccc3Cl)cc2C(F)(F)F)CC1 [II-k-2]
30.2 | 17.8 | Cc1ccc(C(=O)Nc2ccc(CN3CCN(C)CC3)c(C(F)(F)F)c2)cc1Oc1nc(-c2ccncc2)nc2c1cnn2C [II-m-2]
348 | 97.7 | Cc1ccc(C(=O)Nc2ccc(CN3CCN(C)CC3)c(C(F)(F)F)c2)cc1Oc1nc(-c2ccccc2)nc2c1cnn2C [II-m-3]
848 | 152 | Cc1ccc(-c2nc(Oc3cc(C(=O)Nc4ccc(CN5CCN(C)CC5)c(C(F)(F)F)c4)ccc3C)c3cnn(C)c3n2)cc1 [II-m-4]
807 | 320 | Cc1ccc(C(=O)Nc2ccc(CN3CCN(C)CC3)c(C(F)(F)F)c2)cc1Oc1nc(-c2cccc(Cl)c2)nc2c1cnn2C [II-m-5]
696 | 114 | Cc1ccc(C(=O)Nc2ccc(CN3CCN(C)CC3)c(C(F)(F)F)c2)cc1Oc1nc(-c2ccc(Cl)cc2)nc2c1cnn2C [II-m-6]
178 | 28.3 | Cc1ccc(C(=O)Nc2ccc(CN3CCN(C)CC3)c(C(F)(F)F)c2)cc1Oc1nc(-c2cccc(O)c2)nc2c1cnn2C [II-m-7]
166 | 56.9 | Cc1ccc(C(=O)Nc2ccc(CN3CCN(C)CC3)c(C(F)(F)F)c2)cc1Oc1nc(-c2ccc(O)cc2)nc2c1cnn2C [II-m-8]
75.1 | 14.6 | Cc1ccc(C(=O)Nc2ccc(CN3CCN(C)CC3)c(C(F)(F)F)c2)cc1Oc1nc(-c2ccoc2)nc2c1cnn2C [II-m-9]
449 | 36.4 | Cc1ccc(C(=O)Nc2ccc(CN3CCN(C)CC3)c(C(F)(F)F)c2)cc1Oc1nc(-c2ccsc2)nc2c1cnn2C [II-m-10]
31.8 | 14.9 | Cc1ccc(C(=O)Nc2ccc(CN3CCN(C)CC3)c(C(F)(F)F)c2)cc1Oc1nc(Nc2cccnc2)nc2c1cnn2C [II-m-11]
123 | 69.7 | Cc1ccc(C(=O)Nc2ccc(CN3CCN(C)CC3)c(C(F)(F)F)c2)cc1Oc1nc(Nc2ccccc2)nc2c1cnn2C [II-m-12]
253 | 172 | Cc1ccc(Nc2nc(Oc3cc(C(=O)Nc4ccc(CN5CCN(C)CC5)c(C(F)(F)F)c4)ccc3C)c3cnn(C)c3n2)cc1 [II-m-13]
9.31 | 21.6 | Cc1ccc(C(=O)Nc2ccc(CN3CCN(C)CC3)c(C(F)(F)F)c2)cc1Oc1nc(NC2CC2)nc2c1cnn2C [II-m-14]
111 | 18 | Cc1ccc(C(=O)Nc2ccc(CN3CCN(C)CC3)c(C(F)(F)F)c2)cc1Oc1nc(N2CCOCC2)nc2c1cnn2C [II-m-15]
384 | 84.6 | Cc1ccc(C(=O)Nc2ccc(CN3CCN(C)CC3)c(C(F)(F)F)c2)cc1Oc1nc(N2CC(C)OC(C)C2)nc2c1cnn2C (stereo not drawn) [II-m-16]
1100 | 160 | Cc1ccc(C(=O)Nc2ccc(CN3CCN(C)CC3)c(C(F)(F)F)c2)cc1Oc1nc(N2CCN(C)CC2)nc2c1cnn2C [II-m-17]
257 | 34.3 | Cc1ccc(C(=O)Nc2ccc(CN3CCN(C)CC3)c(C(F)(F)F)c2)cc1Oc1nc(N(C)C)nc2c1cnn2C [II-m-18]
54.9 | 124 | Cc1ccc(C(=O)Nc2ccc(CN3CCN(C)CC3)c(C(F)(F)F)c2)cc1Oc1ncnc2c1cnn2C [II-m-19]
1100 | 916 | Cc1ccc(C(=O)Nc2ccc(CN3CCN(C)CC3)c(C(F)(F)F)c2)cc1Oc1nc(-c2ccncc2)nc2c1cnn2C(C)C [II-m-23]
1520 | 440 | Cc1ccc(Oc2nc(-c3ccncc3)nc3c2cnn3C)cc1C(=O)Nc1ccc(CN2CCN(C)CC2)c(C(F)(F)F)c1 [II-n-2]
4170 | 4020 | CN1CCN(Cc2ccc(NC(=O)c3cc(Oc4nc(-c5cccnc5)nc5c4cnn5C)ccc3Cl)cc2C(F)(F)F)CC1 [II-o-1]

GI50 (CCDC6-RET-BaF3) [nM] | GI50 (KIF5B-RET-BaF3) [nM] | Structure (SMILES)
108 | 130 | CN1CCN(Cc2ccc(NC(=O)c3cc(Oc4nc(-c5ccncc5)nc5c4cnn5C)ccc3Cl)cc2C(F)(F)F)CC1 [II-o-2]
268 | 251 | CN1CCN(Cc2cc(NC(=O)c3cccc(Oc4nc(-c5cccnc5)nc5c4cnn5C)c3)cc(C(F)(F)F)c2)CC1 [II-p-1]
458 | 521 | CN1CCN(Cc2cc(NC(=O)c3cccc(Oc4nc(-c5ccncc5)nc5c4cnn5C)c3)cc(C(F)(F)F)c2)CC1 [II-p-2]
264 | 482 | Cc1ccc(C(=O)Nc2cc(CN3CCN(C)CC3)cc(C(F)(F)F)c2)cc1Oc1nc(-c2cccnc2)nc2c1cnn2C [II-s-1]
188 | 355 | Cc1ccc(C(=O)Nc2cc(CN3CCN(C)CC3)cc(C(F)(F)F)c2)cc1Oc1nc(-c2ccncc2)nc2c1cnn2C [II-s-2]
1570 | 2620 | Cc1cn(-c2cc(NC(=O)c3ccc(C)c(Oc4nc(-c5ccncc5)nc5c4cnn5C)c3)cc(C(F)(F)F)c2)cn1 [II-t-2]
7230 | 7940 | Cc1ccc(C(=O)Nc2cc(C(F)(F)F)cc(C(F)(F)F)c2)cc1Oc1nc(-c2cccnc2)nc2c1cnn2C [II-v-1]
1200 | 1200 | CCC(=O)NCC1CCN(c2ccc(NC(=O)c3ccc(C)c(Oc4nc(-c5cccnc5)nc5c4cnn5C)c3)cc2C(F)(F)F)CC1 [II-v-7]
346 | 407 | CCC(=O)NC1CCN(c2ccc(NC(=O)c3ccc(C)c(Oc4nc(-c5ccncc5)nc5c4cnn5C)c3)cc2C(F)(F)F)CC1 [II-v-8]
961 | 934 | CCC(=O)NCC1CCN(c2ccc(NC(=O)c3ccc(C)c(Oc4nc(-c5ccncc5)nc5c4cnn5C)c3)cc2C(F)(F)F)CC1 [II-v-9]
492 | 463 | CC(=O)NCC1CCN(c2ccc(NC(=O)c3ccc(C)c(Oc4nc(-c5cccnc5)nc5c4cnn5C)c3)cc2C(F)(F)F)CC1 [II-v-10]
546 | 646 | CC(=O)NCC1CCN(c2ccc(NC(=O)c3ccc(C)c(Oc4nc(-c5ccncc5)nc5c4cnn5C)c3)cc2C(F)(F)F)CC1 [II-v-11]
364 | 118 | CCC(=O)NC1CCN(c2ccc(NC(=O)c3ccc(C)c(Oc4nc(-c5cccnc5)nc5c4cnn5C)c3)cc2C(F)(F)F)CC1 [II-v-12]
533 | 587 | CC(=O)NC1CCN(c2ccc(NC(=O)c3ccc(C)c(Oc4nc(-c5ccncc5)nc5c4cnn5C)c3)cc2C(F)(F)F)CC1 [II-v-13]
73.9 | 69.3 | CCS(=O)(=O)NC1CCN(c2ccc(NC(=O)c3ccc(C)c(Oc4nc(-c5cccnc5)nc5c4cnn5C)c3)cc2C(F)(F)F)CC1 [II-v-14]
114 | 135 | CCS(=O)(=O)NC1CCN(c2ccc(NC(=O)c3ccc(C)c(Oc4nc(-c5ccncc5)nc5c4cnn5C)c3)cc2C(F)(F)F)CC1 [II-v-15]
2490 | 3070 | CCC(=O)NCC1CCN(c2ccc(NC(=O)c3ccc(C)c(Oc4nc(-c5cccnc5)nc5[nH]ncc45)c3)cc2C(F)(F)F)CC1 [II-v-16]
900 | 1040 | CCC(=O)NCC1CCN(c2ccc(NC(=O)c3ccc(C)c(Oc4nc(-c5ccncc5)nc5[nH]ncc45)c3)cc2C(F)(F)F)CC1 [II-v-17]
2810 | 1540 | CN1CCN(Cc2ccc(C(=O)Nc3cccc(Oc4nc(-c5cccnc5)nc5cc[nH]c45)c3)cc2C(F)(F)F)CC1 [III-h-1]
16.8 | 16.4 | CN1CCN(Cc2ccc(C(=O)Nc3cccc(Oc4nc(-c5ccncc5)nc5cc[nH]c45)c3)cc2C(F)(F)F)CC1 [III-h-2]
4100 | 2140 | CN1CCN(Cc2ccc(C(=O)Nc3cccc(Oc4nc(-c5cccnc5)nc5ccn(C)c45)c3)cc2C(F)(F)F)CC1 [III-h-3]
195 | 180 | CN1CCN(Cc2ccc(C(=O)Nc3cccc(Oc4nc(-c5ccncc5)nc5ccn(C)c45)c3)cc2C(F)(F)F)CC1 [III-h-4]

Reference: patent US11319322B2, “Substituted aryl ether compound, preparation method thereof, pharmaceutical composition and use thereof” (Xiamen University, priority 2017, dated 2022)
